# Assay results published in ChEMBL document CHEMBL3507680, “University of Dundee, Gates Library screen for HepG2 cell viability”.
# Assay: Human HepG2 cell viability assay in 384 well format
# Format: toxicity, cell-based
# Set-up: dose 125 nL, time 70.5 hour; cytotoxicity at 70.5 h: concentration not given beside the values
# Settings: HepG2 cells, read-out: Inhibition
row,Structure (SMILES),cytotoxicity at 70.5 h
1,CCC1(CC)Cc2ccccc2-c2nc(NCCO)[nH]c(=O)c21,-1.26%
2,CC(C)COCC1CN(Cc2cnn(C)c2)Cc2ncn(C)c21 (stereo not given),-7.87%
3,CN(C)CCNC(=O)c1cc(-c2cnc(N(C)C)nc2)cn1CC1CC1,-6.44%
4,CCS(=O)(=O)N1C[C@H]2CN(Cc3ccc(OC)cc3)C(=O)[C@H]2C1,-10.9%
5,CCS(=O)(=O)N1C[C@H]2CN(Cc3cccc(C)c3)C(=O)[C@H]2C1,-10.5%
6,Cc1ccc(N2CC[C@H]3OCC[C@@]3(C(=O)N3CCCO3)C2)nn1,-4.42%
7,CC(C)Nc1ncnc2c1CCN(C(=O)[C@H]1CCCO1)CC2,-6.46%
8,Cc1ccc(N2CC[C@H](O)[C@@H]2Cc2cnn(C)c2)nn1,-6.12%
9,O=C(NCc1ccccc1)N1CCC2(CC(=O)N(c3ccccc3)C2)C1 (stereo not given),-5.57%
10,Cc1cc(C(=O)N2CCc3c(CN(C)C)nn(C)c3C2)[nH]n1,-12.8%
11,CN(C)Cc1nn(C)c2c1CN(C(=O)c1cccc(C#N)c1)C2,-11.5%
12,O=C(Nc1ccccc1)N1CCC2(CC(=O)N(c3ccsc3)C2)C1 (stereo not given),-10%
13,N#Cc1cccc(CN2C[C@@H](NC(=O)C3CC3)[C@H]3OCCC[C@H]32)c1,-12.1%
14,O=C(c1ccnnc1)N1CCO[C@H]2[C@H](Oc3cccnc3)CC[C@@H]21,-13.8%
15,CC1=N[C@@]2(CC[C@@H]3CN(Cc4ccccc4F)C[C@@H]32)C(=O)N1C,-20%
16,COCC1Cn2nnc(-c3cnn(C)c3)c2CN1Cc1ccc(C)o1 (stereo not given),-12.2%
17,O=C(c1ccnnc1)N1C[C@@H](OCc2cccnc2)[C@H]2OCCC[C@H]21,27.3%
18,O=C(c1ccc[nH]1)N1Cc2nccn2CC(COc2cccnc2)C1 (stereo not given),18.1%
19,COc1cc(N2CC[C@@H]3O[C@@H](C(=O)NC(C)C)C[C@@H]32)ncn1,-8.65%
20,Cc1ccc(N2CCO[C@H]3CN(C(=O)c4cccc(C)n4)C[C@H]32)nn1,-9.8%
21,COCCNC(=O)[C@@H]1C[C@H]2[C@H](CCN2c2cc(OC)ncn2)O1,-10.5%
22,O=C(CC1CC1)N1Cc2nccn2CC(COc2cccnc2)C1 (stereo not given),-14.7%
23,COCC(=O)N1Cc2nccn2CC(COc2cccnc2)C1 (stereo not given),-14.4%
24,NC(=O)c1ccc2c(c1)nc1n2CCN(Cc2ccccc2)C1,-15.9%
25,O=C(Cn1cc(I)cn1)Nc1cccnc1,-9.49%
26,CNc1nc2c(s1)C(c1cccc(F)c1F)CC(=O)N2 (stereo not given),-11.9%
27,O=C(NCc1ccco1)c1nn(C2CCS(=O)(=O)C2)c2c1CCCC2 (stereo not given),-10.4%

row,Structure (SMILES),cytotoxicity at 70.5 h
1,CC(=O)N1CCN(C(=O)c2cc(-n3cnnn3)ccc2Cl)CC1,24.6%
2,COc1ccccc1C1SCC(=O)Nc2n[nH]cc21 (stereo not given),3.24%
3,COc1ccc(NCc2nc(=O)n(CCC(C)C)[nH]2)cc1,-14.5%
4,CNc1nc2c(s1)C(c1c(Cl)cccc1Cl)CC(=O)N2 (stereo not given),-15.8%
5,CC(=O)N1CCC2(CC1)C(=O)N(CC1CC1)c1ccccc12,-11.9%
6,O=C1CC2(CCN(S(=O)(=O)c3cccs3)C2)CN1c1ccccc1 (stereo not given),-9.28%
7,O=C(c1ccno1)N1CCC2(CC1)C(=O)N(CC1CC1)c1ccccc12,-17.3%
8,CCOC1COC2(CCN(Cc3ccc4c(c3)OCO4)CC2)C1 (stereo not given),-9.87%
9,O=C(O)c1ccc2ccc(N3CCN(CC4CC4)CC3)n2c1,-9.01%
10,CC(C)CN1CCC2(CCN(Cc3ccoc3)CC2)C1=O,-12.7%
11,CN1[C@H](Cn2cccn2)C[C@@H]2CN(C(=O)Cc3cccs3)CC[C@@H]21,24.7%
12,O=C(C1CCOC1)N1CC[C@@H](O)[C@@H]1Cc1ccccc1 (stereo not given in full),-12.1%
13,CC(C)CN1CCC2(CCN(C(=O)c3ccc(F)cc3)CC2)C1=O,-5.58%
14,C[C@H]1C(=O)NC[C@H]2CN(Cc3ccccc3)C[C@H]21,-2.5%
15,O=C1CC2(CCCCN2C(=O)c2ccsc2)CN1CC1CC1 (stereo not given),8.93%
16,CN(C)CCN1CCCC12CCN(C(=O)c1cnccn1)CC2,6.16%
17,CCC(CO)NC(=O)c1ccc2ccc(N(C)CC3CC3)n2c1 (stereo not given),3.39%
18,COCC1CN(S(C)(=O)=O)Cc2ncn(CC3CC3)c21 (stereo not given),-6.83%
19,O=C(NC[C@H]1OC[C@@H]2CCN(C(=O)c3ccco3)C[C@@H]21)C1CC1,-6.37%
20,CC(C)CC(=O)N1CCCn2cnc(CN3CCCC3=O)c2C1,-4.92%
21,CNC(=O)c1cc2c(nc1NC(C)C)CCN(C(=O)NC(C)C)CC2,-10.9%
22,Cc1nccc([C@@H]2C[C@@H]3CCN(S(C)(=O)=O)C[C@H]3O2)n1,-10%
23,Cc1noc(C2CCC3(CCN(C(=O)c4c(C)noc4C)CC3)O2)n1 (stereo not given),-5.47%
24,O=C1CCCN1Cc1ncn2c1CN(C(=O)c1cccc(F)c1)CCC2,-13.4%
25,O=C(O)c1ccccc1-n1cc(CN2CCC(c3cc[nH]n3)C2)cn1 (stereo not given),-2.77%
26,CN(C)CC(=O)N1CCCC1c1ccccn1 (stereo not given),-3.81%
27,Cc1ccc(C2CCCN(S(C)(=O)=O)C2)nc1 (stereo not given),-2.08%

row,Structure (SMILES),cytotoxicity at 70.5 h
1,Cc1occc1C(=O)N1CCc2c(CNS(C)(=O)=O)cncc2C1,-20.9%
2,O=C1CC2(CCCNC2)C(=O)N1Cc1ccc(F)cc1 (stereo not given),-10.9%
3,O=C1[C@H]2CN(S(=O)(=O)c3ccccc3)C[C@H]2CN1Cc1cccnc1,-15.6%
4,CN(C)c1ncc(-c2cc(C(=O)NCCC#N)n(CC3CC3)c2)cn1,-12.9%
5,COCCCNC(=O)c1cc(-c2cnc(N(C)C)nc2)cn1CC1CC1,-6.95%
6,c1cncc(CN2C[C@H]3CCC[C@@H](CNc4cnccn4)[C@H]3C2)c1,-4.05%
7,O=C1[C@H]2CN(S(=O)(=O)C3CC3)C[C@H]2CN1Cc1cccnc1,-8.9%
8,CN(C)C(=O)[C@@H]1CCO[C@@H]2CCN(CCOCc3ccccc3)C[C@H]21,20.6%
9,O=C(NCc1cccnc1)N1CCC2(CC(=O)N(c3ccsc3)C2)C1 (stereo not given),-6.34%
10,CC1=N[C@@]2(CC[C@@H]3CN(Cc4ccccc4C)C[C@@H]32)C(=O)N1CC1CC1,-9.24%
11,O=C(C1CCCO1)N1CCc2ncnc(NC3CCC3)c2CC1 (stereo not given),-15.3%
12,N#Cc1cccc(CN2C[C@H](NC(=O)C3CC3)[C@H]3OCCC[C@H]32)c1,-14%
13,CN(C)C(=O)[C@@H]1CC[C@@H]2[C@@H](CCN2Cc2nccs2)O1,-14.7%
14,CO[C@H]1CC[C@H]2[C@H]1OCCN2Cc1ccc(F)c(F)c1,36.7%
15,CC(C)N1CCC(c2nc3ccc(-c4ccnn4C)cn3n2)CC1,19.8%
16,Cn1cc(CN2CC[C@@H]3[C@H]2CCC(=O)N3c2ccccc2)cn1,-8.65%
17,Cc1nc(CN2CCC3(CCN(c4cnn(C)c4)C3=O)C2)cs1 (stereo not given),-14.5%
18,CC(C)CC(=O)N1C[C@@H]2CCN(c3ncccn3)C[C@@H]2C1,42.7%
19,CC(=O)N1[C@H](CN(C)C)C[C@@H]2CN(C(=O)c3cccc(F)c3)CC[C@@H]21,-14.7%
20,COCC(=O)NC1CC2(CCN(CCF)CC2)Oc2ccccc21 (stereo not given),-10.9%
21,O=C(Cc1cccs1)N1CC[C@H]2[C@@H]1CCC(=O)N2c1cccnc1,2.43%
22,CN1CCC2(CC1)C(=O)N(CC1CC1)c1ccccc12,-9.7%
23,COCCN1C[C@@H]2CN(Cc3cccc(C)n3)C[C@@H]2C1=O,-13.6%
24,Cc1cccc(CN2CCC3(CCN(c4ccccn4)C3)C2=O)c1 (stereo not given),-11.4%
25,COc1cccc(CN2CCC3(CCN(C(=O)[C@H]4CCCO4)CC3)C2)c1,-4.99%
26,Cc1ccc(C(=O)N2CCC3(CC2)CC(N2CCOCC2)C3)cc1,-12.7%
27,O=C(C1CCCC1)N1CCC2(CC1)COCCN2CC1CC1,-12.4%

row,Structure (SMILES),cytotoxicity at 70.5 h
1,Cc1cccc(CN2C(=O)CCC23CCN(c2ncc(F)cn2)CC3)n1,-5.55%
2,Cc1nc(CN2CCC3(CC2)NC(=O)CC3c2ccccc2)cs1 (stereo not given),-2.14%
3,COCCN1CCCC12CCN(C(=O)CC1CCCC1)CC2,3.49%
4,O=C1CC2(CCN(CC3CC3)C2)CN1c1cccc(F)c1 (stereo not given),6.96%
5,CN(C)C(=O)N1CCOCC2(CCN(c3ccccn3)C2)C1 (stereo not given),-5.46%
6,CS(=O)(=O)N1CCOC2(CCCN(c3cnccn3)C2)C1 (stereo not given),-6.97%
7,CCOC[C@H]1CC[C@H]2[C@H](CCN2C(=O)c2ccncc2F)O1,-8.92%
8,CN(C)C(=O)N1CCOCC2(CCN(c3ncccn3)C2)C1 (stereo not given),-5.25%
9,CC(C)N(C)Cc1cnc2n1CCN(Cc1ccsc1)C2,-8.42%
10,Cn1cc(CN2CCC(F)(F)C3(CCN(c4cccnc4)C3)C2)cn1 (stereo not given),-9.49%
11,Cc1ccc(CN2CCn3c(CN(C)C(C)C)cnc3C2)s1,-6.07%
12,CC(C)N(C)Cc1cnc2n1CCN(Cc1ccc(F)cc1)C2,-9.32%
13,COCc1cncc2c1CCN(Cc1cccs1)C2,0.63%
14,COCCN1CCOCC2(CCCN(Cc3cccc(F)c3)C2)C1 (stereo not given),-5.38%
15,Cc1cccc(CN2CCC3(CCN(Cc4ccccn4)C3)C2=O)c1 (stereo not given),27.9%
16,CC[C@H]1N(C)CCC[C@]12CCC(=O)N2Cc1ccncc1,10.9%
17,CN1CCN(CCO)C(=O)C12CCN(Cc1ccsc1)CC2,-8.5%
18,Cc1ccc(C(=O)N2CCC3(CC2)CCN(CCN(C)C)C3=O)cn1,-8.77%
19,Cc1cccc(CN2C(=O)C[C@H]3[C@@H]2CCN3CC2CC2)n1,-2.5%
20,Cc1ccc(CN2Cc3nnn(C)c3C(COCCN(C)C)C2)s1 (stereo not given),-4.13%
21,CO[C@@H]1CN(Cc2scnc2C)[C@@H]2CCCO[C@@H]21,-4.62%
22,c1ccc(CN2CCC3(CC2)CCN(Cc2cccs2)C3)nc1,0.064%
23,c1ccc(CN2C[C@@H]3CCCO[C@@H]3[C@H](Nc3ccccn3)C2)nc1,-7.21%
24,c1ccc(CN2CCc3c(COCc4ccncc4)cncc3C2)nc1,-4.58%
